Assay results from US12234230B2, “Substituted benzyl-triazole compounds for Cbl-b inhibition, and further uses thereof” (Nurix Therapeutics, Inc., priority 2019, dated 2025).

How the values were obtained:
[1] = tested on: primary human total T-cells; assay: Primary human total T-cell activation (IL-2 secretion, CD25 surface staining), Biological Example 12; conditions: fold change over baseline, Table 12-1; for IL-2 secretion CD3/CD28 0.3 μM: 0.3 μM inhibitor; for IL-2 secretion CD3/CD28 0.3 μM / IL-2 secretion CD3/CD28 1 μM: anti-CD3 and anti-CD28 co-stimulation; for IL-2 secretion CD3/CD28 1 μM / IL-2 secretion CD3 1 μM: 1 μM inhibitor
Method: Peripheral blood mononuclear cells (PBMC) were obtained either: 1) by using Ficoll-Paque™ (GE Healthcare) for separation of peripheral blood hematopoietic cells from buffy coats of healthy human donors; or 2) directly from LeukoPak donations. […] The cells were rested overnight at 37° C. 5% CO2. The Cbl-inhibitor was added to 1×10^5 cells per well and the plate was incubated for one hour at 37° C. in 5% CO2 at the concentrations indicated (Table 12-1) with a final DMSO concentration of <0.1%. For samples stimulated with anti-CD3 antibody and anti-CD28 antibody (anti-CD3/anti-CD28), the Cbl-b inhibitor concentrations tested were 1 μM, and 0.3 μM. For samples stimulated with anti-CD3 antibody alone (anti-CD3), the Cbl-b inhibitor concentrations tested were 3 μM, and 1 μM. […] To prepare plates with plate bound anti-CD3 antibody (OKT3), 96-well round bottom tissue culture plates were coated with 100 μL of anti-CD3 antibody (OKT3) at 10 μg/mL for 4 hours at 37° C. 5% CO2 in phosphate buffered saline (PBS). […] Cells were stimulated for 48 hours prior to harvesting the cell free supernatant and staining the cell population for surface marker assessment by flow cytometry. Supernatants were analyzed for cytokine secretion, including IL-2 by ELISA (R&D Systems, Peprotech or Life Technologies) or Luminex multiplex kits (Procarta Life Technologies) following the manufacturer's protocol. Cells were stained with anti-CD25 antibody (BD Biosciences) to assess levels of surface marker of activation.
Readouts were reported as fold change over baseline. Baseline for this study was the measurement obtained from total human T-cells stimulated with anti-CD3 antibody and with soluble anti-CD28 antibody, wherein the cells were not incubated with a Cbl-b inhibitor (Table 12-1). […] For T-cells stimulated with anti-CD3 alone, changes greater than 0.1-fold over baseline for IL-2 secretion and greater than 0.6-fold over baseline for CD25 surface staining were considered significant and a positive response.

Cbl-b [2] = molecular target: T1, Cbl-b (Homo sapiens (Human), UniProt Q13191); assay: Cbl-b displacement assay (Cbl-b inhibition assay), Biological Example 11; type: binding; conditions: 0.125 nM Cbl-b final concentration (Low); Table 11-1
Method: (§1) Candidate compounds were evaluated for their ability to bind and inhibit Cbl-b, an E3 ubiquitin-protein ligase, as evidenced by their ability to displace a fluorophore-labeled probe bound to Cbl-b.
(§2) The ability of candidate compounds to displace a known inhibitor and thereby inhibit Cbl-b activity was measured by monitoring the interaction of Cbl-b with a fluorophore-labeled probe in the presence of the candidate compound.
(§3) Fluorescently-labeled inhibitor probe was synthesized and tagged with BODIPY FL. […] Following the one hour incubation, the plates were read for TR-FRET signal at 520/620 nm using an Envision plate reader (Perkin Elmer).
(§4) The resulting data for the Cbl-b activity assays were analyzed using standard methods to determine the IC50 values for the tested compounds.

[3] = tested on: primary human total T-cells; assay: Primary human total T-cell activation (IL-2 secretion, CD25 surface staining), Biological Example 9; conditions: fold change over baseline, Table 9-1; for IL-2 secretion CD3/CD28 0.3 μM: 0.3 μM inhibitor; for IL-2 secretion CD3/CD28 0.3 μM / IL-2 secretion CD3/CD28 1 μM: anti-CD3 and anti-CD28 co-stimulation; for IL-2 secretion CD3/CD28 1 μM / IL-2 secretion CD3 1 μM: 1 μM inhibitor
Method: Peripheral blood mononuclear cells (PBMC) were obtained either: 1) by using Ficoll-Paque™ (GE Healthcare) for separation of peripheral blood hematopoietic cells from buffy coats of healthy human donors; or 2) directly from LeukoPak donations. […] The cells were rested overnight at 37° C. 5% CO2. The Cbl-inhibitor was added to 1×10^5 cells per well and the plate was incubated for one hour at 37° C. in 5% CO2 at the concentrations indicated (Table 9-1) with a final DMSO concentration of <0.1%. For samples stimulated with anti-CD3 antibody and anti-CD28 antibody (anti-CD3/anti-CD28), the Cbl-b inhibitor concentrations tested were 1 μM, and 0.3 μM. For samples stimulated with anti-CD3 antibody alone (anti-CD3), the Cbl-b inhibitor concentrations tested were 3 μM, and 1 μM. […] To prepare plates with plate bound anti-CD3 antibody (OKT3), 96-well round bottom tissue culture plates were coated with 100 μL of anti-CD3 antibody (OKT3) at 10 μg/mL for 4 hours at 37° C. 5% CO2 in phosphate buffered saline (PBS). […] Cells were stimulated for 48 hours prior to harvesting the cell free supernatant and staining the cell population for surface marker assessment by flow cytometry. Supernatants were analyzed for cytokine secretion, including IL-2 by ELISA (R&D Systems, Peprotech or Life Technologies) or Luminex multiplex kits (Procarta Life Technologies) following the manufacturer's protocol. Cells were stained with anti-CD25 antibody (BD Biosciences) to assess levels of surface marker of activation.
Readouts were reported as fold change over baseline. Baseline for this study was the measurement obtained from total human T-cells stimulated with anti-CD3 antibody and with soluble anti-CD28 antibody, wherein the cells were not incubated with a Cbl-b inhibitor (Table 9-1). […] For T-cells stimulated with anti-CD3 alone, changes greater than 0.1-fold over baseline for IL-2 secretion and greater than 0.6-fold over baseline for CD25 surface staining were considered significant and a positive response.

Cbl-b [4] = molecular target: T1, Cbl-b; assay: Cbl-b displacement assay (Cbl-b inhibition assay), Biological Example 8; type: binding; conditions: 0.125 nM Cbl-b final concentration (Low); Table 8-1
Method: as §1, §2, §3, §4

Cbl-b [5] = molecular target: T1, Cbl-b; assay: Cbl-b displacement assay (Cbl-b inhibition assay), Biological Example 1; type: binding
Method: as §2
Following the one hour incubation, the plates were read for TR-FRET signal at 520/620 nm using an Envision plate reader (Perkin Elmer).

[6] = tested on: primary human total T-cells; assay: Primary human total T-cell activation (IL-2 secretion, CD25 surface staining), Biological Example 2; conditions: fold change over baseline; for IL-2 secretion CD3/CD28 0.3 μM / CD25 staining CD3/CD28 0.3 μM: 0.3 μM inhibitor; for IL-2 secretion CD3/CD28 0.3 μM / IL-2 secretion CD3/CD28 1 μM / CD25 staining CD3/CD28 0.3 μM / CD25 staining CD3/CD28 1 μM: anti-CD3 and anti-CD28 co-stimulation; for IL-2 secretion CD3/CD28 1 μM / CD25 staining CD3 1 μM / IL-2 secretion CD3 1 μM / CD25 staining CD3/CD28 1 μM: 1 μM inhibitor; for CD25 staining CD3 1 μM / IL-2 secretion CD3 1 μM / CD25 staining CD3 3 μM / IL-2 secretion CD3 3 μM: anti-CD3 stimulation alone; for CD25 staining CD3 3 μM / IL-2 secretion CD3 3 μM: 3 μM inhibitor
[7] = 3 μM inhibitor, anti-CD3 stimulation alone
[8] = 0.125 nM Cbl-b final concentration (Low), read-out: Cbl-b activity IC50 (Low)

T1 sequence (Q13191 36-427): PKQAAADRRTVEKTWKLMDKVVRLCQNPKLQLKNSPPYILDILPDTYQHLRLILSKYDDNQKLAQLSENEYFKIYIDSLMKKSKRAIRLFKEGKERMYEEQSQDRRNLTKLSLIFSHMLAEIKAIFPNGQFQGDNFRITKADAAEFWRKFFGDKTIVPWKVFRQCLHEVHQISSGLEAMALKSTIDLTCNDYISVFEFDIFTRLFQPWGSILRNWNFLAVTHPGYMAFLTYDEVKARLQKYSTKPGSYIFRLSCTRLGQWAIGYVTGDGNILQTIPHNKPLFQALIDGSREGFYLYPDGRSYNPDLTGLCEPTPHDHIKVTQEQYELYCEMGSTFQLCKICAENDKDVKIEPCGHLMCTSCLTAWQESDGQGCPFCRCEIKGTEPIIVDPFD

Row | SMILES | IC50 (Cbl-b [5]; [8]) [nM] | IL-2 secretion CD3/CD28 0.3 μM [6] | IL-2 secretion CD3/CD28 1 μM [6] | CD25 staining CD3 1 μM [6] | IL-2 secretion CD3 1 μM [6] | CD25 staining CD3 3 μM [6] | IL-2 secretion CD3 3 μM [6] | CD25 staining CD3/CD28 0.3 μM [6] | CD25 staining CD3/CD28 1 μM [6] | further results
1 | C[C@H]1CCCN(Cc2cc3c(c(C(F)(F)F)c2)CN(c2cccc([C@H](c4nncn4C)C4CCC4)c2)C3=O)C1 [Compound 3, 2-(3-((R)-cyclobutyl(4-methyl-4H-1,2,4-triazol-3-yl)methyl)phenyl)-6-(((S)-3-methylpiperidin-1-yl)methyl)-4-(trifluoromethyl)isoindolin-1-one] | < 5 | A (A indicates >35 fold) | A (A indicates >35 fold) | A (A indicates >2.5 fold) | A (A indicates >1.1 fold) | A (A indicates >2.5 fold) | A (A indicates >1.1 fold) |  |  | IL-2 secretion CD3/CD28 0.3 μM [1]: A (A indicates >15 fold); IL-2 secretion CD3/CD28 1 μM [1]: A (A indicates >15 fold); IL-2 secretion CD3 1 μM ([1]; anti-CD3 stimulation alone): A (A indicates >0.66 fold); IL-2 secretion CD3 3 μM [1, 7]: A (A indicates >0.66 fold); IC50 (Cbl-b [2]): < 1 nM; IL-2 secretion CD3/CD28 0.3 μM [3]: A (A indicates >15 fold); IL-2 secretion CD3/CD28 1 μM [3]: A (A indicates >15 fold); IL-2 secretion CD3 1 μM ([3]; anti-CD3 stimulation alone): A (A indicates >0.66 fold); IL-2 secretion CD3 3 μM [3, 7]: A (A indicates >0.66 fold); IC50 (Cbl-b [4]): < 1 nM; IC50 (Cbl-b [5]; read-out: IC50 values in the Cbl-b inhibition assay of Biological Example 1): ≤ 5 nM
2 | C[C@@H]1CN(Cc2cc3c(c(C(F)(F)F)c2)CN(c2cccc([C@H](c4nncn4C)C4CCC4)c2)C3=O)CCO1 [Compound 17, 2-(3-((R)-cyclobutyl(4-methyl-4H-1,2,4-triazol-3-yl)methyl)phenyl)-6-(((R)-2-methylmorpholino)methyl)-4-(trifluoromethyl)isoindolin-1-one] | < 5 | B (B indicates 20-35 fold) | A (A indicates >35 fold) | B (B indicates 1.5-2.5 fold) | A (A indicates >1.1 fold) | B (B indicates 1.5-2.5 fold) | A (A indicates >1.1 fold) | B (B indicates 1.24-1.39 fold) | B (B indicates 1.24-1.39 fold) | IL-2 secretion CD3/CD28 0.3 μM [1]: B (B indicates 11-15 fold); IL-2 secretion CD3/CD28 1 μM [1]: A (A indicates >15 fold); IL-2 secretion CD3 1 μM ([1]; anti-CD3 stimulation alone): A (A indicates >0.66 fold); CD25 staining CD3 3 μM [1, 7]: B (B indicates 1.05-1.14 fold); IL-2 secretion CD3 3 μM [1, 7]: A (A indicates >0.66 fold); IL-2 secretion CD3/CD28 0.3 μM [3]: B (B indicates 10-15 fold); IL-2 secretion CD3/CD28 1 μM [3]: A (A indicates >15 fold); IL-2 secretion CD3 1 μM ([3]; anti-CD3 stimulation alone): A (A indicates >0.66 fold); CD25 staining CD3 3 μM [3, 7]: B (B indicates 1.05-1.14 fold); IL-2 secretion CD3 3 μM [3, 7]: A (A indicates >0.66 fold)
3 | C[C@@H]1CN(Cc2cc3c(c(C(F)(F)F)c2)CN(c2cccc(C4(c5nncn5C)COC4)c2)C3=O)CCC1(F)F [Compound 47, 6-[[(3R)-4,4-difluoro-3-methyl-1-piperidyl]methyl]-2-[3-[3-(4-methyl-1,2,4-triazol-3-yl)oxetan-3-yl]phenyl]-4-(trifluoromethyl)isoindolin-1-one] | < 5 | A (A indicates >35 fold) | A (A indicates >35 fold) | B (B indicates 1.5-2.5 fold) | B (B indicates 0.70-1.1 fold) | B (B indicates 1.5-2.5 fold) | C (C indicates <0.70 fold) |  |  | 
4 | C[C@H]1CCCN(Cc2cc3c(c(C(F)(F)F)c2)CN(c2cccc([C@]4(c5nncn5C)C[C@@H](CC#N)C4)c2)C3=O)C1 [Compound 48, 2-((1R,3s)-3-(4-methyl-4H-1,2,4-triazol-3-yl)-3-(3-(6-(((S)-3-methylpiperidin-1-yl)methyl)-1-oxo-4-(trifluoromethyl)isoindolin-2-yl)phenyl)cyclobutyl)acetonitrile] | < 5 | B (B indicates 20-35 fold) | A (A indicates >35 fold) | A (A indicates >2.5 fold) | A (A indicates >1.1 fold) | B (B indicates 1.5-2.5 fold) | B (B indicates 0.70-1.1 fold) |  |  | 
5 | C[C@@H]1CN(Cc2cc3c(c(C(F)(F)F)c2)CN(c2cccc([C@]4(c5nncn5C)C[C@@H](CC#N)C4)c2)C3=O)CCC1(F)F [Compound 49, 2-((1S,3s)-3-(3-(6-(((R)-4,4-difluoro-3-methylpiperidin-1-yl)methyl)-1-oxo-4-(trifluoromethyl)isoindolin-2-yl)phenyl)-3-(4-methyl-4H-1,2,4-triazol-3-yl)cyclobutyl)acetonitrile] | < 5 | A (A indicates >35 fold) | A (A indicates >35 fold) | A (A indicates >2.5 fold) | A (A indicates >1.1 fold) | A (A indicates >2.5 fold) | A (A indicates >1.1 fold) | B (B indicates 1.24-1.39 fold) | B (B indicates 1.24-1.39 fold) | 
6 | C[C@H]1CCCN(Cc2cc3c(c(C(F)(F)F)c2)CN(c2cccc([C@]4(c5nncn5C)C[C@H](CC#N)C4)c2)C3=O)C1 [Compound 50, 2-((1S,3r)-3-(4-methyl-4H-1,2,4-triazol-3-yl)-3-(3-(6-(((S)-3-methylpiperidin-1-yl)methyl)-1-oxo-4-(trifluoromethyl)isoindolin-2-yl)phenyl)cyclobutyl)acetonitrile] | < 5 | A (A indicates >35 fold) | A (A indicates >35 fold) | A (A indicates >2.5 fold) | A (A indicates >1.1 fold) | A (A indicates >2.5 fold) | A (A indicates >1.1 fold) |  |  | 
7 | C[C@@H]1CN(Cc2cc3c(c(C(F)(F)F)c2)CN(c2cccc([C@]4(c5nncn5C)C[C@H](CC#N)C4)c2)C3=O)CCC1(F)F [Compound 51, 2-((1R,3r)-3-(3-(6-(((R)-4,4-difluoro-3-methylpiperidin-1-yl)methyl)-1-oxo-4-(trifluoromethyl)isoindolin-2-yl)phenyl)-3-(4-methyl-4H-1,2,4-triazol-3-yl)cyclobutyl)acetonitrile] | < 5 | A (A indicates >35 fold) | A (A indicates >35 fold) | A (A indicates >2.5 fold) | A (A indicates >1.1 fold) | A (A indicates >2.5 fold) | A (A indicates >1.1 fold) | B (B indicates 1.24-1.39 fold) | B (B indicates 1.24-1.39 fold) | 
8 | C[C@@H]1CN(Cc2cc3c(c(C(F)(F)F)c2)CN(c2cccc(C4(c5nncn5C)CC(F)(F)C4)c2)C3=O)CCC1(F)F [Compound 52, 2-{3-[3,3-difluoro-1-(4-methyl-1,2,4-triazol-3-yl)cyclobutyl]phenyl}-6-{[(3R)-4,4-difluoro-3-methylpiperidin-1-yl]methyl}-4-(trifluoromethyl)-3H-isoindol-1-one] | < 5 | A (A indicates >35 fold) | B (B indicates 20-35 fold) | A (A indicates >2.5 fold) | A (A indicates >1.1 fold) | A (A indicates >2.5 fold) | A (A indicates >1.1 fold) |  |  | 
9 | C[C@@H]1CN(Cc2cc3c(c(C(F)(F)F)c2)CN(c2cccc(C4(c5nncn5C)CC(F)(F)C4)c2)C3=O)CCO1 [Compound 53, 2-{3-[3,3-difluoro-1-(4-methyl-1,2,4-triazol-3-yl)cyclobutyl]phenyl}-6-{[(2R)-2-methylmorpholin-4-yl]methyl}-4-(trifluoromethyl)-3H-isoindol-1-one] | < 5 | A (A indicates >35 fold) | A (A indicates >35 fold) | A (A indicates >2.5 fold) | A (A indicates >1.1 fold) | A (A indicates >2.5 fold) | A (A indicates >1.1 fold) |  |  | 
